{"source": "patent US6310090A", "about": "“Process and product for enhancing immune response in companion animals using a combination of antioxidants” (priority 2000, dated 2001)", "key": {"[1]": {"system": "CD4+ T-helper cells", "assay": "lymphocyte subsets by flow cytometry, lutein supplementation", "format": "cell-based, dog (Beagle)", "conditions": "5 and 10 mg lutein, week 12", "procedure": "(§3) Fifty six female Beagle dogs (17 to 18 months old; average body weight 11.4±0.4 kg) were randomly assigned to be supplemented daily with 0, 5, 10 or 20 mg lutein for 17 weeks. The lutein contained 76.66% lutein and 5.23% zeaxanthin. The lutein supplement was resuspended in soybean oil to the appropriate concentration and 1 mL administered perorally at 0800 h daily. Food (200 g/dog/d) was offered immediately after the lutein supplementation. […] All dogs were housed in 2×2 m pens (2 dogs/pen) in a temperature (20 to 22° C.) and light (14 h light) controlled facility. Body weight was recorded at weeks 0, 6, and 12.\n(§4) Blood was collected by jugular venipuncture into heparinized evacuated tubes on weeks 0, 2, 4, 8 and 12 and aliquots used for HPLC analysis and for assessing immune responses.\n(§5) Blood leukocytes were separated using Histopaque-1119 (Sigma, St. Louis, Mo.). Cells were washed three times with phosphate-buffered saline (PBS, pH 7.4) and contaminating erythrocytes were lysed in NH4 CI (8.4 g/L). Lymphocyte subsets were determined by flow cytometry (FACScan, Becton Dickinson, San Jose, Calif.). […]\n(§6) Appropriate negative controls were included to correct for background fluorescence. Data were expressed as the percentage of positive-staining cells corrected for cells stained nonspecifically with the secondary antibody."}, "[2]": {"system": "CD21+ B cells", "assay": "lymphocyte subsets by flow cytometry, lutein supplementation", "format": "cell-based, dog (Beagle)", "conditions": "dietary lutein", "procedure": "as §3, §4, §5, §6"}, "[3]": {"system": "IgM", "assay": "IgM by single radial immunodiffusion, lutein supplementation", "format": "in vivo, dog (canine)", "conditions": "after revaccination on week 15", "description": "(§1) Serum collected on weeks 0, 2, 4, 8 and 12 were analyzed for IgG and IgM concentrations by single radial immunodiffusion (SRID). In addition, all dogs were vaccinated with the polyvalent vaccine (Vanguard 5, Smithkline Beacham, West Chester, Pa.) on week 13 and again on week 15 to study the possible anamnestic effect of dietary lutein. Blood was collected weekly from week 13 through week 17. Goat antiserum to canine IgG (10%, whole molecule) or IgM (7.5%, μ chain specific) (ICN, Aurora, Ohio) was mixed with melted agarose (10 g/L in PBS; Sigma Chem. Co., St. Louis, Mo.) and the mixture solidified in SRID plates. Duplicate 5 μL volumes of serum or IgG (0, 2.88, 5.75, 11.5 and 23.0 mg/ml) or IgM (0, 0.25, 0.5, 1.0 and 2.0 mg/ml) standard were loaded into the wells. After incubating for 24 hours at room temperature in a humidified chamber, ring diameters were measured using a SRID reader (Transidyne General Corp., Ann Arbor, Minn.)."}, "[4]": {"system": "CD8+ T-cytotoxic/suppressor cells", "conditions": "week 12", "procedure": "as §3, §4, §5, §6"}, "[5]": {"system": "IL-2", "assay": "IL-2 production by PHA-stimulated PBMC in whole blood cultures, lutein supplementation", "format": "cell-based, dog (canine)", "description": "Whole blood was diluted 1:2 with RPMI-1640 supplemented with Hepes and antibiotics (described earlier) and 400 μL of diluted blood were pipetted into 48-well plates (Costar, Cambridge, Mass.). Cells were stimulated with PHA (400 μL of a 5 μg/mL solution) for 48 hours at […] in a 5% CO2 atmosphere. The plates were centrifuged at 200×g for 10 minutes and the supernatant was frozen at -80° C. The IL-2 content of the culture supernatant was determined in triplicate by ELISA (Intergen, Purchase, N.Y.). The polyclonal anti-human IL-2 cross-reacted with canine IL-2 and recombinant human IL-2 was used as the standard."}, "[6]": {"system": "IgG", "assay": "IgG by single radial immunodiffusion, lutein supplementation", "format": "in vivo, dog (canine)", "description": "as §1"}, "[7]": {"system": "plasma lipid peroxidation (malondialdehyde)", "assay": "plasma lipid peroxidation (TBARS) assay, lutein supplementation", "format": "in vivo, dog (Beagle)", "description": "Plasma lipid peroxidation activity was determined by measuring malondialdehyde (MDA) production. The standard used was 1,1,3,3-tetramethoxypropane JMP) (Sigma Chem. Co., St. Louis, Mo.). Duplicate 500 μL plasma samples were pipetted into 15 ml, glass tubes and 3 mL of 10 g/L phosphoric acid and 1 ml of 6 g/L TBA solution were added. The mixture was boiled in a water bath for 45 minutes. Tubes were allowed to cool and the TBA-MDA complex was extracted with 4 ml of n-butanol. The butanol layer was separated by centrifugation at 1,000×g for 10 minutes and absorbance was measured on at 532 nm (Beckman, Fullerton, Calif.). The TBARS activity was expressed in nmole MDA/L plasma."}, "[8]": {"system": "canine thyroid adenocarcinoma cells", "procedure": "Fifty six female Beagle dogs (17 to 18 months old; average body weight 11.4±0.4 kg) were randomly assigned to be supplemented daily with 0, 5, 10 or 20 mg lutein for 17 weeks. The lutein contained 76.66% lutein and 5.23% zeaxanthin. The lutein supplement was resuspended in soybean oil to the appropriate concentration and 1 mL administered perorally at 0800 h daily. Food (200 g/dog/d) was offered immediately after the lutein supplementation. The basal diet met or exceeded the requirements for all essential nutrients (NRC 1985). All dogs were housed in 2×2 m pens (2 dogs/pen) in a temperature (20 to 22° C.) and light (14 h light) controlled facility. Body weight was recorded at weeks 0, 6, and 12.\nas §4\nCanine thyroid adenocarcinoma cells were used as target cells in assessing NK cell cytotoxic activity. […] Target cells were cultured in a T75 flask with 20 mL minimum essential medium (MEM; Sigma Chem. Co., St. Louis, Mo.) supplemented with 10% fetal calf serum (FC S), 100 U/mL of penicillin and 100 μg/mL of streptomycin. […] Optical density was measured at 570 nm using a microplate reader. The percentage of NK cell-specific lysis was calculated as follows: […]"}, "[9]": {"system": "polyvalent vaccine (specific antigen)", "assay": "delayed type hypersensitivity response to vaccine / vaccine recognition, lutein supplementation", "format": "in vivo, dog (Beagle)", "description": "(§2) Skin induration response was assessed in all dogs on weeks 0, 6, and 12. Dogs were injected intradermally in the flank area with saline (8.5 g/L; control), an attenuated polyvalent vaccine containing canine distemper virus, canine adenovirus type-2, canine parainfluenza virus and parvovirus (Vanguard 5, Smithkline Beacham, West Chester, Pa.; specific antigen), and PHA (0.5 g/L; nonspecific antigen). The doses of vaccine and PHA used were previously determined to provide optimal skin response in Beagle dogs of similar age. The injection site was clipped and wiped with 70% ethyl alcohol. The injection volume was 100 μL. Skin induration was measured at 0, 24, 48 and 72 h post-injection with the aid of a pressure-sensitive digital micrometer (Mitsutoyo, Tokyo, Japan) and response was expressed as a percentage of skin thickness measured at 0 h."}, "[10]": {"system": "mouse splenocytes", "conditions": "dietary lutein; cited from earlier work"}, "[11]": {"system": "CD5+ total T cells", "assay": "lymphocyte subsets by flow cytometry, lutein supplementation", "format": "cell-based, dog (Beagle)", "conditions": "weeks 4 and 8, dogs fed lutein", "procedure": "as §3, §4, §5, §6"}, "[12]": {"system": "PHA (nonspecific antigen)", "assay": "delayed type hypersensitivity response (skin induration) to PHA, lutein supplementation", "format": "in vivo, dog (Beagle)", "description": "as §2"}, "[13]": {"system": "peripheral blood mononuclear cells (PBMC)", "assay": "mitogen-induced PBMC proliferation, lutein supplementation", "format": "cell-based, dog (Beagle)", "description": "Blood collected on weeks 0, 2, 4, 8 and 12 were used to assess mitogen-induced lymphocyte proliferation by peripheral blood mononuclear cells (PBMC). Whole blood culture was used in order to mimic in vivo conditions. Mitogens used were phytohemagglutinin (PHA), concanavalin A (Con A) and pokeweed mitogen (PWM). Whole blood was thoroughly mixed and then diluted 1:12 with RPMI-1640 containing 25 mM of Hepes, penicillin (100 U/mL) and streptomycin (100 μg/mL) (Sigma, St. Louis, Mo.). […] Triplicate 150 μL volumes were pipetted into 96-well round bottom plates and 50 μl of the appropriate mitogens added. The final concentrations of the mitogens in culture were 2 and 10 μg/mL for PHA, 1 and 5 μg/mL for Con A and 0.5 and 2.5 μg/mL for PWM. The two mitogen concentrations gave maximum (the higher mitogen concentration) and suboptimal (lower mitogen concentration) proliferative responses in preliminary studies using blood from similar animals. The mixture was incubated for 72 h at 37° C. in a humidified incubator under a 5% CO2 atmosphere. Four hours prior to the termination of the incubation period, 20 μL of [^3 H]-thymidine (1 [μCi/well) were added. Cells were harvested onto fiberglass filters and radioactivity was counted by liquid scintillation. Proliferation response of PBMC was expressed as stimulation index (cpm of stimulated cultures/cpm of unstimulated cultures)."}, "[14]": {"system": "immune system", "assay": "summary of the results from each of the studies (Table 1)", "format": "in vivo, dog"}, "[15]": {"system": "MHC class II expressing lymphocytes", "assay": "lymphocyte subsets by flow cytometry, lutein supplementation", "format": "cell-based, dog (Beagle)", "conditions": "20 mg lutein, week 8 and 12", "procedure": "as §3, §4, §5, §6"}, "[16]": {"conditions": "averaged across all treatments and all periods"}}}
{"molecule": "CC1=C[C@H](O)CC(C)(C)[C@H]1/C=C/C(C)=C/C=C/C(C)=C/C=C/C=C(C)/C=C/C=C(C)/C=C/C1=C(C)C[C@@H](O)CC1(C)C", "note": "[lutein]", "values": [{"measurement": "% CD4+ cells", "setting": "[1]", "result": "higher"}, {"measurement": "CD21+ B cell population", "setting": "[2]", "result": "did not significantly influence"}, {"measurement": "concentration of plasma IgM", "setting": "[3]", "result": "not changed"}, {"measurement": "CD8+ population", "setting": "[4]", "result": "not influenced by the diet"}, {"measurement": "concentrations of IL-2 in culture medium", "setting": "[5]; averaged throughout the study, all treatments", "result": "15.7 ± 0.4", "unit": "ng/mL"}, {"measurement": "production of IL-2 by PHA-stimulated PBMC", "setting": "[5]; throughout the experimental period", "result": "did not differ significantly"}, {"measurement": "plasma IgG", "setting": "[6]; 5 mg lutein, week 16, after revaccination on week 15, P<0.05", "result": "higher"}, {"measurement": "plasma IgG", "setting": "[6]; 20 mg lutein, week 17, after revaccination on week 15", "result": "higher"}, {"measurement": "plasma TBARS activity", "setting": "[7]; averaged across all treatments and periods", "result": "95.8±0.1", "unit": "nmol MDA/L"}, {"measurement": "effect on plasma TBARS activity", "setting": "[7]; lutein supplementation", "result": "did not significantly affect"}, {"measurement": "plasma retinol concentration", "setting": "[16]", "result": "3.63 ± 0.14", "unit": "µmol/L"}, {"measurement": "plasma α-tocopherol concentration", "setting": "[16]", "result": "37 ± 2", "unit": "µmol/L"}, {"measurement": "plasma lutein+zeaxanthin vs unsupplemented animals", "setting": "dog, in vivo", "result": "significantly higher"}, {"measurement": "influence on plasma retinol and α-tocopherol", "setting": "lutein supplementation", "result": "did not influence"}, {"measurement": "NK cell cytotoxic activity", "setting": "[8]", "result": "did not significantly influence"}, {"measurement": "specific lysis of target cells by PBMC", "setting": "[8]; averaged across all treatments and sampling periods, E:T 10:1", "result": "49.1±1.1", "unit": "%"}, {"measurement": "improvement of vaccine recognition", "setting": "[9]; FIG. 2, addition of lutein to the diet", "result": "≤ 32", "unit": "%"}, {"measurement": "DTH response to vaccine", "setting": "[9]; week 6, 48 and 72 h post-injection", "result": "dose-related"}, {"measurement": "DTH response to vaccine", "setting": "[9]; week 6, 24 h", "result": "not significant"}, {"measurement": "DTH response to vaccine", "setting": "[9]; week 12", "result": "no significant dietary effect"}, {"measurement": "lymphocyte proliferation in mouse splenocytes", "setting": "[10]", "result": "enhance lymphocyte proliferation"}, {"measurement": "percentages of CD5+ cells vs unsupplemented controls", "setting": "[11]", "result": "generally had higher percentages"}, {"measurement": "DTH response to PHA, treatment difference", "setting": "[12]; week 6, 48 and 72 h", "result": "no significant treatment difference"}, {"measurement": "DTH response to PHA", "setting": "[12]; week 6, 24 h post-injection", "result": "dose-related DTH response"}, {"measurement": "DTH response to PHA vs unsupplemented dogs", "setting": "[12]; week 12, 20 mg lutein", "result": "significantly higher"}, {"measurement": "DTH response to PHA", "setting": "[12]; week 12, 24, 48 and 72 h", "result": "general dose-dependent increase"}, {"measurement": "PWM-stimulated PBMC proliferative response", "setting": "[13]; 10 mg lutein, week 8", "result": "higher proliferative response"}, {"measurement": "Con A-stimulated PBMC proliferation", "setting": "[13]; 10 mg lutein, weeks 8 and 12, 5 μg/mL Con A", "result": "higher PBMC proliferation"}, {"measurement": "PWM-stimulated PBMC proliferation vs unsupplemented controls", "setting": "[13]; 20 mg lutein, week 8 and 12, both concentrations of PWM", "result": "significantly higher PBMC proliferation"}, {"measurement": "PHA-stimulated PBMC proliferative response vs unsupplemented dogs", "setting": "[13]; 20 mg lutein, weeks 8 (10 pg/mL PHA) and 12 (2 and 10 μg/mL PHA), P<0.01", "result": "enhanced"}, {"measurement": "Con A-stimulated PBMC proliferation", "setting": "[13]; 20 mg lutein, weeks 8 and 12, both concentrations of Con A", "result": "higher PBMC proliferation"}, {"measurement": "PHA-stimulated PBMC proliferation", "setting": "[13]; 5 and 10 mg lutein, week 8, 10 μg/ml PHA", "result": "higher PBMC proliferation"}, {"measurement": "spontaneous proliferation by unstimulated PBMC", "setting": "[13]; no mitogen", "result": "did not significantly influence"}, {"measurement": "PHA-stimulated PBMC response", "setting": "[13]; weeks 0 and 4", "result": "no significant effect"}, {"measurement": "PWM-stimulated PBMC proliferation, treatment difference", "setting": "[13]; weeks 0 and 4", "result": "no significant treatment difference"}, {"measurement": "Optimize vaccine recognition by the dog", "setting": "[14]; Table 1", "result": ".check mark."}, {"measurement": "Optimize immune cell activity (B-cells)", "setting": "[14]; Table 1, Lutein column", "result": ".check mark."}, {"measurement": "% MHC class II cell populations vs unsupplemented dogs", "setting": "[15]", "result": "elevated"}]}
